Test results: US20160298165A1 (priority 2013, published 2016)

Tests used:
[1] = tested on: M. tuberculosis parental, sdh1 and sdh2 mutant strains
[2] = tested on: M. tuberculosis Δsdh1 mutant; assay type: cell-based; settings: aerobic, at two and five days
[3] = tested on: INH-resistant M. tuberculosis strains (H37Rv inhA S94A, H37Rv PmabAinhA c-15t, H37Rv katG g371del); assay type: cell-based, Mycobacterium tuberculosis
[4] = tested on: M. tuberculosis Δsdh1 or Δsdh2 mutants; assay type: cell-based; settings: hypoxic conditions
[5] = tested on: M. tuberculosis H37Rv; assay type: cell-based, Mycobacterium tuberculosis
[6] = tested on: M. tuberculosis H37Rv rpoB H445R; assay type: cell-based, Mycobacterium tuberculosis

With N#CC(C#N)=NNc1cccc(Cl)c1 [CCCP, carbonyl cyanide 3-chlorophenylhydrazone] the “time after which culture was unable to be rescued” value [1] was 22 to 24 days, the “viable cells at end of experiment” value [1] was “no viable cells remained” and the “parental inoculum remaining viable” value ([1]; Mycobacterium tuberculosis) was 0.1%.

For CC[C@@H](CO)NCCN[C@@H](CC)CO [EMB, Ethambutol, reference compound], the “clearing of the Δsdh1 mutant by single drugs vs parental” value [2] was “this was not true”.

With CCc1cc(C(N)=S)ccn1 [ETH] the “clearing of the Δsdh1 mutant by single drugs vs parental” value [2] was “cleared more rapidly”.

In the case of NNC(=O)c1ccncc1 [INH, Isoniazid], the “growth of INH-resistant strains” value [3] is reported as “not impaired”, the “clearing of the Δsdh1 mutant by single drugs vs parental” value [2] is reported as “this was not true” and the “killing of Δsdh1 or Δsdh2 mutants compared to the parental strain” value [4] is reported as “no effect”.

CN[C@@H]1[C@H](O[C@H]2[C@H](O[C@H]3[C@H](O)[C@@H](O)[C@H](N=C(N)N)[C@@H](O)[C@@H]3N=C(N)N)O[C@@H](C)[C@]2(O)C=O)O[C@@H](CO)[C@H](O)[C@H]1O [STR] was tested, and the “clearing of the Δsdh1 mutant by single drugs vs parental” value [2] was “this was not true”.

N[C@@H](CS)C(=O)O [cysteine] was tested, and the “Frequency of mutation for INH, Average” value [5] was 7 × 10^−7, the “Frequency of mutation for RIF” value [5] was 2 × 10^−8 and the “Frequency of mutation for RIF, Average” value [5] was 2 × 10^−8. The “decrease in the frequency of spontaneous INH-resistant mutants” value [5] was at most 10 fold, the “decrease in the frequency of spontaneous RIF-resistant mutants” value [5] was 3 fold and the “growth of H37Rv rpoB H445R” value [6] was “grew well”. For the same molecule, the “growth of INH-resistant strains” value [3] was “not impaired”.
